Measurements: patent US11180528B2 (priority 2018, dated 2021)
Values after ≈ are worked out from the molar mass of the structure shown. “Also recorded” adds a separate entry of the source. Where two headings read alike, the source gives them in different places. Ends that are not written are not given here.

How the values were obtained:
F. tularensis LVS [1] = tested on: F. tularensis LVS
[2] = tested on: F. tularensis tularensis SchuS4
F. tularensis LVS [3] = settings: mouse, in vivo; cited from earlier work
F. tularensis LVS [4] = settings: mouse, in vivo
F. tularensis LVS [5] = tested on: F. tularensis LVS; remark: listed apart in the source
[6] = tested on: F. tularensis tularensis SchuS4; remark: listed apart in the source
G. mellonella larvae = settings: in vivo
F. tularensis LVS [7] = assay type: cell-based, Francisella tularensis subsp. holarctica
F. tularensis LVS [8] = tested on: F. tularensis LVS; parameters: species or system Galleria mellonella; settings: in vivo
F. tularensis LVS [9] = assay type: cell-based, Francisella tularensis subsp. holarctica; remark: listed apart in the source
F. tularensis LVS LPS = assay type: binding, Francisella tularensis subsp. holarctica
E. coli LPS = assay type: binding
[10] = tested on: A549 human lung epithelial cells

Compound	EC50 (95% CI) [μg/ml] (F. tularensis LVS [1])	EC50 (F. tularensis LVS [1]; 3 h) [nM]	EC50 [2] [nM]	EC50 (95% CI) [μg/ml] (F. tularensis NIH B38)	EC50 (F. tularensis NIH B38; 3 h) [nM]	EC50 (95% CI) (F. tularensis LVS [1]; 3 h) [µg/mL]	MIC / inhibitory activity in broth (F. tularensis LVS [5])	MIC [6] [µg/mL]	other results
CC[C@H](C)[C@H](NC(=O)[C@H](CCCCN)NC(=O)[C@H](CCC(=O)O)NC(=O)[C@H](CCCCN)NC(=O)[C@H](CO)NC(=O)[C@H](CCCCN)NC(=O)[C@H](CCCNC(=N)N)NC(=O)[C@H](Cc1ccccc1)NC(=O)[C@H](Cc1ccccc1)NC(=O)[C@H](CC(=O)O)NC(=O)CNC(=O)[C@H](CC(C)C)NC(=O)[C@@H](N)CC(C)C)C(=O)NCC(=O)N[C@@H](CCCCN)C(=O)N[C@@H](CCC(=O)O)C(=O)N[C@@H](Cc1ccccc1)C(=O)N[C@@H](CCCCN)C(=O)N[C@@H](CCCNC(=N)N)C(=O)N[C@H](C(=O)N[C@H](C(=O)N[C@@H](CCC(N)=O)C(=O)N[C@@H](CCCNC(=N)N)C(=O)N[C@H](C(=O)N[C@@H](CCCCN)C(=O)N[C@@H](CC(=O)O)C(=O)N[C@@H](Cc1ccccc1)C(=O)N[C@@H](CC(C)C)C(=O)N[C@@H](CCCNC(=N)N)C(=O)N[C@@H](CC(N)=O)C(=O)N[C@@H](CC(C)C)C(=O)N[C@H](C(=O)N1CCC[C@H]1C(=O)N[C@@H](CCCNC(=N)N)C(=O)N[C@H](C(=O)N[C@@H](CCC(=O)O)C(=O)N[C@@H](CO)C(=O)O)[C@@H](C)O)C(C)C)[C@@H](C)CC)C(C)C)[C@@H](C)CC [LL-37]	0.21 (0.14-0.31) μg/ml	47	125	0.13 (0.076-0.21) μg/ml	28				EC50 (95% CI) (F. tularensis LVS [1]): 0.209 µg/mL (≈ 0.0465 µM); EC50 (95% CI) [μg/ml] [2]: 0.562 (0.195 to 1.61) μg/ml; mean time till death and survival (F. tularensis LVS [3]): extended mean time till death but did not increase survival; also recorded: significantly extended mean time to death, but did not ultimately rescue any mice; severity of signs of disease (health scores) (F. tularensis LVS [4]): nor did these peptides lessen signs of disease
FSTKTRNWFSEHFKKVKEKLKDTFA [Apo5, reference compound]						~6			EC50 (95% CI) (F. tularensis NIH B38; 3 h): ~16 µg/mL
KFRNWFSEHFKKFKEKLKDTFA [GATR-1]	0.76 (0.54-1.1) μg/ml	260		16 (9.5-27) μg/ml	5620		inactive		
KFRNWFSQHFKKFKQKLKNTFA [GATR-3]		190	10000		280			>83.3	
KFRNWFSQHWKKWKQKLKNTWA [GATR-5]		260			650				survival of larvae (toxicity) (G. mellonella larvae): 30%
KFRNWFSQHWRRWRQRLRNTWA [GATR-6]		290	10400		51			>83.3	mean time till death (MTD) (F. tularensis LVS [4]): 6 days
KTRNWFSEHFKKVKEKLKDTFA [Apo6]	6.8 (5.9-7.8) μg/ml	2500		16 (8.6-31) μg/ml	5890	~6	no observable MIC		EC50 (95% CI) (F. tularensis LVS [1]): 6.82 µg/mL; pore formation (change in RFU) (F. tularensis LVS [7]): significant pore formation; also recorded: significant membrane disruption; EC50 [μM] [2]: Not active; survival of infected larvae (F. tularensis LVS [8]): 60%; dissipation of membrane potential (F. tularensis LVS [9]): dissipated the membrane potential; LPS binding (F. tularensis LVS LPS): does not significantly bind; EC50 (95% CI) (F. tularensis NIH B38): 16.3 µg/mL; EC50 (95% CI) (F. tularensis NIH B38; 3 h): ~16 µg/mL; LPS binding (E. coli LPS): did not bind; efficacy in murine studies (F. tularensis LVS [4]): not reliably effective
KTRNWFSQHFKKVKQKLKNTFA [GATR-2]	2.4 (1.5-3.7) μg/ml	860		11 (7.7-15) μg/ml	3900		inactive		
NPKTRNWFSEHFKKVKEKLKDTFA [GATR-4]		3700				11.0	inactive		EC50 [μM] (F. tularensis NIH B38): Not active
RWRNWWSQRWRRWRQRLRNTWA [GATR-7]		320	7470		530			41.7	death of larvae (toxicity) (G. mellonella larvae): not found to have significant death; inhibition (F. tularensis LVS [5]; 41.5 μg/ml): 85%; suppression of cell proliferation [10]: some statistically significant suppression of cell proliferation
